pIC50: −log10 of the molar value. Read-outs that look alike come from different tables or passages of the source.
How the values were obtained:
Assay type in all cases: biochemical
KDM4C (JMJD2C) = target: T1, KDM4C (JMJD2C) (Homo sapiens, UniProt Q9H3R0); experiment: Histone lysine demethylase AlphaLISA assay, KDM4C
T1 construct: KDM4C; BRIC, Denmark; 1-349; E. coli; host or cells: E. coli
T1 sequence (Q9H3R0 1-349): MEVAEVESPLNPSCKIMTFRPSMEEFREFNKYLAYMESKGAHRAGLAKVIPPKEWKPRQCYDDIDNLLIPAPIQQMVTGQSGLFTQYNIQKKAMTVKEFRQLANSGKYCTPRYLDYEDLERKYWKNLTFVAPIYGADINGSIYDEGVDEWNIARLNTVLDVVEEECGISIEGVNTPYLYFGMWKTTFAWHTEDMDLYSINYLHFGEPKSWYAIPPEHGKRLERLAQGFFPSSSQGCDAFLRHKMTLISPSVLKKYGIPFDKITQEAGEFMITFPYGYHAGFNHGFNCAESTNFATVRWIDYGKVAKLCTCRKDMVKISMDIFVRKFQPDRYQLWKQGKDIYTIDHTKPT
Summary of the method: (§1)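 Steps: enzyme in Hepes buffer with 5 μM Fe(II) and 0.1% BSA; add to DMSO compound; incubate 10 minutes; add substrate, incubate at RT; add acceptor beads, then streptavidin donor beads; incubate in dark; read AlphaLISA.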

KDM6A (UTX) = target: T2, KDM6A (UTX) (Homo sapiens, UniProt O15550); experiment: Histone lysine demethylase AlphaLISA assay, KDM6A
T2 construct: KDM6A (UTX); BRIC; 919-1401; E. coli; host or cells: E. coli
T2 sequence (O15550 919-1401): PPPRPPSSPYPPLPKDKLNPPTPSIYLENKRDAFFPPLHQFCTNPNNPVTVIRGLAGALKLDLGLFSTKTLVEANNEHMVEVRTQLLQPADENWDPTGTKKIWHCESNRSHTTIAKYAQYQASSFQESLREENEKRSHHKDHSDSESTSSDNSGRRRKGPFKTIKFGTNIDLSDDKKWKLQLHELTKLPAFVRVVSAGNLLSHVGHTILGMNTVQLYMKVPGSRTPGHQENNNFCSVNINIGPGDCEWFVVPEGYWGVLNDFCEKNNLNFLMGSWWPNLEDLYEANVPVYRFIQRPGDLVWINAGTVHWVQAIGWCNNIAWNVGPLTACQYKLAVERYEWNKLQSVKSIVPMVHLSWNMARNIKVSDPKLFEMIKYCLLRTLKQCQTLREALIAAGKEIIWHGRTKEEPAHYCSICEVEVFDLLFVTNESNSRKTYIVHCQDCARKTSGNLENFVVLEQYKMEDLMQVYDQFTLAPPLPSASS
Procedure: The compounds of the application, or a pharmaceutically acceptable salt, or solvate, or prodrug thereof, are tested in an in vitro AlphaLISA assay. Enzymes are dissolved in enzyme buffer and incubated before they are added to DMSO solutions of compounds of the application, or a pharmaceutically acceptable salt, or solvate, or prodrug thereof, in enzyme buffer. The reaction mixture is then incubated for an additional period of time before substrate solution is added and then the resulting mixture again incubated. Acceptor beads and suspended Epigenetic Buffer from stock are added and the suspension is again incubated before a suspension of streptavidin donor beads in Epigenetic Buffer is added. After an additional period of incubation, the plates are read.
The ability of compounds of the application to inhibit the histone lysine demethylase activity in vitro of different enzymes was determined.
The reaction mixture was incubated for another 10 minutes before 5 μL of substrate solution was added and the resulting mixture was then incubated at room temperature. […] After incubation at room temperature in the dark, the plates were read.
Enzyme Buffer: 50 mM Hepes (pH 7.4-8.0), 0.003-0.01% Tween-20, 0.1% BSA; 5 μM (NH4)2Fe(SO4)2.

PHF8 (KDM7) = target: T3, PHF8 (KDM7) (Homo sapiens, UniProt Q9UPP1); experiment: Histone lysine demethylase AlphaLISA assay, PHF8
T3 construct: KDM7 (PHF8); BRIC; 1-1322; Bac
T3 sequence (Q9UPP1 37-440 limits assumed): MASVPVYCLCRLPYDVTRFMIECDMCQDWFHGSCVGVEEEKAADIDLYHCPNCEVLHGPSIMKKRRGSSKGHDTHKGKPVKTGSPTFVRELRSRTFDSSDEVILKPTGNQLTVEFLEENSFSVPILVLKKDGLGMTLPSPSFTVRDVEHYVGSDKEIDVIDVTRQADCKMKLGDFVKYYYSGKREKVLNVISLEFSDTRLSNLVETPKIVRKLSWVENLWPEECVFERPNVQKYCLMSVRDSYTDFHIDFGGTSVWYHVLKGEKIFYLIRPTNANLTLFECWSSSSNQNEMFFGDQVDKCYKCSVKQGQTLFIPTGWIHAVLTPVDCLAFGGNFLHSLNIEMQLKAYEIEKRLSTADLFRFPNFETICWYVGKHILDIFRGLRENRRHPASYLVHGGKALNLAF
Summary of the method: as §1

KDM5B (PLU-1) = target: T4, KDM5B (PLU-1) (Homo sapiens, UniProt Q9UGL1); experiment: Histone lysine demethylase AlphaLISA assay, KDM5B
T4 construct: BRIC; 1-809; E. coli; host or cells: E. coli
T4 sequence (Q9UGL1 1-809): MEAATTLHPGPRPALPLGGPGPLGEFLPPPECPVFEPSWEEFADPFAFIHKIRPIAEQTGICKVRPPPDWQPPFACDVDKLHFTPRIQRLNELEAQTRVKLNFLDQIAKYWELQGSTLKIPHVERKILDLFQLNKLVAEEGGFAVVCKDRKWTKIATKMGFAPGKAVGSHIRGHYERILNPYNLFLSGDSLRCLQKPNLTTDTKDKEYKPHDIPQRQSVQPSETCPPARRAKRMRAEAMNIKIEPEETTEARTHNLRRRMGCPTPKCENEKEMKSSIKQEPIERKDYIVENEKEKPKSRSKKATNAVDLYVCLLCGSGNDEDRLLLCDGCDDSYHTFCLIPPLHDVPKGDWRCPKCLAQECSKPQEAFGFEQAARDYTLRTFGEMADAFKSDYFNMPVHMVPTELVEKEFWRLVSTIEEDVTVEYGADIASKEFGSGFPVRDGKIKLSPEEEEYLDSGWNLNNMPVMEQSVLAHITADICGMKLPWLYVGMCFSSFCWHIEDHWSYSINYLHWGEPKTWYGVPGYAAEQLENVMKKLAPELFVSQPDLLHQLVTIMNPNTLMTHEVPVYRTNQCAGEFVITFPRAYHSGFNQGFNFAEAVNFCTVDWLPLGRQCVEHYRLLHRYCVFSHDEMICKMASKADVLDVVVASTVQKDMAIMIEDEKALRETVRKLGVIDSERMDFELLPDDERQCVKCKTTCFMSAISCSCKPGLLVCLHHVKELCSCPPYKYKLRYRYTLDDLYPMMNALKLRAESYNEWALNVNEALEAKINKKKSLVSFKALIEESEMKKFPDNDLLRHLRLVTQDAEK
Summary of the method: as §1

KDM2B (FBXL10) = target: T5, KDM2B (FBXL10) (Homo sapiens, UniProt Q8NHM5); experiment: Histone lysine demethylase AlphaLISA assay, KDM2B
T5 construct: KDM2B; BPS,; 1-650; Bac; purchased BPS Bioscience, US; host or cells: baculovirus system
T5 sequence (Q8NHM5 1-650): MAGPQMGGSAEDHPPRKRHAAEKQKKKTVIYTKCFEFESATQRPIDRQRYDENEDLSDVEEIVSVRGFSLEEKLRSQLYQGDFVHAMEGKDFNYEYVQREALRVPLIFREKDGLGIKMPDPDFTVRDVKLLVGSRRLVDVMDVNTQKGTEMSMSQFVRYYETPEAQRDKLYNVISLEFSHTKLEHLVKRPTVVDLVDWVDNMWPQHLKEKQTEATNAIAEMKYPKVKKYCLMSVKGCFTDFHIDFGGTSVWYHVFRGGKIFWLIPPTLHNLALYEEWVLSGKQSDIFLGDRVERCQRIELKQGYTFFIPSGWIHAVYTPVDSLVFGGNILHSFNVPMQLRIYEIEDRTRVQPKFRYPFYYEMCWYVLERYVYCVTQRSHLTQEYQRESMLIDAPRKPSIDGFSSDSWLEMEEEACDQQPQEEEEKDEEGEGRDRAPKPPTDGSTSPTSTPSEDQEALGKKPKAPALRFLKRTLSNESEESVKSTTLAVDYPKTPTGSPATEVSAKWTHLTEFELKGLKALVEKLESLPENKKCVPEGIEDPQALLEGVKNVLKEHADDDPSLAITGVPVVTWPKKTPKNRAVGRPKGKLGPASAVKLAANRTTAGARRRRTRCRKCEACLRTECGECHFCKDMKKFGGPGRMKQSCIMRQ
Summary of the method: as §1

[1] = AlphaLISA assay, read-out: HDME Inhibition KDM4C (IC50)
[2] = AlphaLISA, in vitro, read-out: HDME Inhibition KDM4C
[3] = AlphaLISA assay, read-out: HDME Inhibition KDM6A (IC50)
[4] = AlphaLISA, in vitro, read-out: HDME Inhibition KDM6A
[5] = AlphaLISA, in vitro, read-out: HDME Inhibition PHF8
[6] = AlphaLISA assay, read-out: HDME Inhibition KDM5B (IC50)
[7] = AlphaLISA, in vitro, read-out: HDME Inhibition KDM5B
[8] = AlphaLISA, in vitro, read-out: HDME Inhibition KDM2B

| pIC50 (KDM4C (JMJD2C); [1]) | pIC50 (KDM4C (JMJD2C); [2]) | pIC50 (KDM6A (UTX); [3]) | pIC50 (KDM6A (UTX); [4]) | pIC50 (PHF8 (KDM7); [5]) | pIC50 (KDM5B (PLU-1); [6]) | pIC50 (KDM5B (PLU-1); [7]) | pIC50 (KDM2B (FBXL10); [8]) | pIC50 (KDM5B (PLU-1)) | pIC50 (PHF8 (KDM7); AlphaLISA assay, read-out: HDME Inhibition PHF8 (IC50)) | pIC50 (KDM2B (FBXL10); AlphaLISA assay, read-out: HDME Inhibition KDM2B (IC50)) | SMILES |
| --- | --- | --- | --- | --- | --- | --- | --- | --- | --- | --- | --- |
| < 5.00 | < 5.00 | < 5.00 | < 5.00 | 6.36 | < 5.00 | < 5.00 | 6.93 |  |  |  | C/C=C\c1cnc(CNCc2cc(C(=O)O)cc(C)n2)n1Cc1ccc(F)cc1 [Compound 35, 2-{[({1-[(4-fluorophenyl)methyl]-5-[(1Z)-prop-1-en-1-yl]-1H-imidazol-2-yl}methyl)amino]methyl}-6-methylpyridine-4-carboxylic acid] |
| < 5.00 | < 5.00 | < 5.00 | < 5.00 | 6.31 | < 5.00 | < 5.00 | 6.53 |  |  |  | Cc1cc(C(=O)O)cc(CNCc2nnc(C)n2Cc2ccc(F)cc2)n1 [Compound 37, 2-{[({4-[(4-Fluorophenyl)methyl]-5-methyl-4H-1,2,4-triazol-3-yl}methyl)amino]methyl}-6-methylpyridine-4-carboxylic acid] |
| < 5.00 | < 5.00 | < 5.00 | < 5.00 | 5.81 | < 5.00 | < 5.00 | 6.22 |  |  |  | Cc1cc(C(=O)O)cc(CNCc2nnc(Cc3cccs3)n2Cc2ccc(F)cc2)n1 [Compound 40, 2-{[({4-[(4-fluorophenyl)methyl]-5-(thiophen-2-ylmethyl)-4H-1,2,4-triazol-3-yl}methyl)amino]methyl}-6-methylpyridine-4-carboxylic acid] |
| < 5.00 | < 5.00 | < 5.00 | < 5.00 | 6.42 | < 5.00 | < 5.00 | 6.82 |  |  |  | Cc1cc(C(=O)O)cc(CNCc2ncc(C(C)C)n2Cc2ccc(F)cc2)n1 [Compound 8, 2-{[({1-[(4-fluorophenyl)methyl]-5-(propan-2-yl)-1H-imidazol-2-yl}methyl)amino]methyl}-6-methylpyridine-4-carboxylic acid] |
| < 5.00 | < 5.00 | < 5.00 | < 5.00 | 6.05 |  | 6.46 | 5.94 |  |  |  | Cc1cc(C(=O)O)cc(CNC2CCCc3cccnc32)n1 (stereo not drawn) [Compound 19, 2-methyl-6-{[(5,6,7,8-tetrahydroquinolin-8-yl)amino]methyl}pyridine-4-carboxylic acid] |
| < 5.00 | < 5.00 | < 5.00 | < 5.00 | 5.92 | < 5.00 | < 5.00 | 5.95 |  |  |  | Cc1cc(C(=O)O)cc(CNCc2nc3c(n2Cc2ccc(F)cc2)CCC3)n1 [Compound 25, 2-{[({1-[(4-fluorophenyl)methyl]-1H,4H,5H,6H-cyclopenta[d]imidazol-2-yl}methyl)amino]methyl}-6-methylpyridine-4-carboxylic acid] |
| < 5.00 | < 5.00 |  | 5.08 |  |  |  | 5.65 | 6.58 |  |  | CC(=O)c1ccc(Cn2ccnc2CNCc2cc(C(=O)O)cc(C)n2)cc1 [Compound 24, 2-{[({1-[(4-acetylphenyl)methyl]-1H-imidazol-2-yl}methyl)amino]methyl}-6-methylpyridine-4-carboxylic acid] |
| < 5.00 | < 5.00 |  |  | 5.95 | < 5.00 | < 5.00 | 6.48 |  |  |  | CCc1cnc(CNCc2cc(C(=O)O)cc(C)n2)n1CCCC(C)C [Compound 91, 2-[({[5-ethyl-1-(4-methylpentyl)-1H-imidazol-2-yl]methyl}amino)methyl]-6-methylpyridine-4-carboxylic acid] |
| < 5.00 | < 5.00 |  |  | < 5.00 | < 5.00 | < 5.00 | < 5.00 |  | < 5.00 | < 5.00 | NCc1cc(C(=O)O)cc(CN)n1 [Compound 110, 2,6-bis(aminomethyl)pyridine-4-carboxylic acid] |
|  | 5.13 |  |  | 6.51 |  |  | 6.61 | 6.64 |  |  | O=C(O)c1cc(CO)nc(CNCc2nncn2Cc2ccc(F)cc2)c1 [Compound 62, 2-{[({4-[(4-fluorophenyl)methyl]-4H-1,2,4-triazol-3-yl}methyl)amino]methyl}-6-(hydroxymethyl)pyridine-4-carboxylic acid] |
| < 5.00 | < 5.00 |  |  | 5.88 |  | 5.21 | 6.98 |  |  |  | CCOc1ccc(CC(C)C)c(CNCc2cc(C(=O)O)cc(CO)n2)n1 [Compound 101, 2-[({[6-ethoxy-3-(2-methylpropyl)pyridin-2-yl]methyl}amino)methyl]-6-(hydroxymethyl)pyridine-4-carboxylic acid] |
| < 5.00 | < 5.00 |  |  | 6.10 | < 5.00 | < 5.00 | 6.15 |  |  |  | Cc1cc(C(=O)O)cc(CNCc2nncn2C/C=C/c2ccccc2)n1 [Compound 67, 2-methyl-6-{[({4-[(2E)-3-phenylprop-2-en-1-yl]-4H-1,2,4-triazol-3-yl}methyl)amino]methyl}pyridine-4-carboxylic acid] |
